The results in this text go back to patent US12624026B2, “Inhibitors of SARM1” (Disarm Therapeutics, Inc., priority 2018, dated 2026).

The structures appear in SMILES notation.
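Further: inhibition of SARM1 SAM-TIR NADase activity, i.e. NAD+ cleavage, using lysate of NRK1-HEK293T cells overexpressing the SAM-TIR fragment.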

The test concerns the target T1, SARM1 SAM-TIR (Homo sapiens, UniProt Q6SZW1).
T1 construct: a fragment of the SARM1 molecule encompassing the SAM and TIR domains; made in house; host or cells: NRK1-HEK293T cells, transiently transfected; the cleared, unpurified lysate was used as the enzyme
T1 sequence (Q6SZW1 409-724 limits assumed): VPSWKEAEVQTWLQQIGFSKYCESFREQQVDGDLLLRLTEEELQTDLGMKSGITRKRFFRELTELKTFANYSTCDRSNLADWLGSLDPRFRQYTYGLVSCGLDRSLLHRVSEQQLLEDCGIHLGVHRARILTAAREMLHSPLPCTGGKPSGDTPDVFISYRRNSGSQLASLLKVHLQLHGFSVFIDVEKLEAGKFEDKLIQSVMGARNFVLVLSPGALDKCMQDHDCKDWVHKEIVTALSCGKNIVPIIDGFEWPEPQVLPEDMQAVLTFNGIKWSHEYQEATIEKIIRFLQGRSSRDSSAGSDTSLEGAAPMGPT
The test can be described thus: biochemical. The settings on record: SAM-TIR lysate 5 μg/mL, 2 h pre-incubation, 5 μM NAD+, RapidFire MS of NAD+ and ADPR; read-out: SARM1 IC50.
Broadly, the IC50 is the concentration at which inhibition is half-maximal. As to `Cn1sc(Nc2c(Cl)cccc2Cl)c(C#N)c1=O` [Example 46], the IC50 is below 1 µM.

On to `C[C@H](CO)n1sc(Nc2ccccc2C(F)(F)F)c(C#N)c1=O` [Example 47], for which the IC50 is below 1 µM.

Take `Cn1sc(Nc2c(Cl)ccc3c2cnn3C)c(C#N)c1=O` [Example 48]: the IC50 is below 1 µM.

Take `N#Cc1c(Nc2cccc(Br)c2C(F)(F)F)s[nH]c1=O` [Example 49]: the IC50 was below 1 µM.

In the case of `Cn1sc(Nc2c(Br)ccc3ncccc23)c(C#N)c1=O` [Example 50], the IC50 is below 1 µM.

In the case of `COCCn1sc(Nc2ccccc2C(F)(F)F)c(C#N)c1=O` [Example 51], the IC50 is below 1 µM.

On to `Cn1sc(Nc2c(Cl)ccc3ncccc23)c(C#N)c1=O` [Example 52], for which the IC50 was below 1 µM.

For `Cn1sc(Nc2cccc3ncccc23)c(C#N)c1=O` [Example 53], the IC50 is below 1 µM.

For the molecule `C[C@@H](c1ccccc1)n1sc(Nc2cccc(Cl)c2Cl)c(C#N)c1=O` [Example 54], the IC50 was below 1 µM.

On to `CS(=O)(=O)CCn1sc(Nc2ccccc2C(F)(F)F)c(C#N)c1=O` [Example 55], for which the IC50 was below 1 µM.

In the case of `Cn1ccc(Cn2sc(Nc3ccccc3C(F)(F)F)c(C#N)c2=O)n1` [Example 56], the IC50 is below 1 µM.

Take `COCCn1sc(Nc2c(OC)cccc2C(F)(F)F)c(C#N)c1=O` [Example 57]: the IC50 is below 1 µM.

On to `COCCn1sc(Nc2cccc(Cl)c2Cl)c(C#N)c1=O` [Example 58], for which the IC50 is below 1 µM.

Turning to `COC[C@H](C)n1sc(Nc2ccccc2C(F)(F)F)c(C#N)c1=O` [Example 59], the IC50 was below 1 µM.

As to `N#Cc1c(Nc2ccccc2C(F)(F)F)sn(C[C@@H]2CCOC2)c1=O` [Example 60], the 50% inhibitory concentration (IC50) is below 1 µM.

Regarding `N#Cc1c(Nc2ccccc2C(F)(F)F)sn(CC2(O)CC2)c1=O` [Example 61], the IC50 is below 1 µM.

In the case of `N#Cc1c(Nc2ccccc2C(F)(F)F)sn(Cc2ccccn2)c1=O` [Example 62], the IC50 was below 1 µM.

With `N#Cc1c(Nc2ccccc2C(F)(F)F)sn(C[C@H]2CCOC2)c1=O` [Example 63], the IC50 is below 1 µM.

In the case of `CC(C)(O)Cn1sc(Nc2ccccc2C(F)(F)F)c(C#N)c1=O` [Example 64], the IC50 was below 1 µM.

On to `CCn1sc(Nc2ccccc2C(F)(F)F)c(C#N)c1=O` [Example 65], for which the IC50 was below 1 µM.

In the case of `Cn1sc(Nc2c(Cl)ccc3c2CCCO3)c(C#N)c1=O` [Example 66], the IC50 is below 1 µM.

Turning to `CC(C)(O)Cn1sc(Nc2c(F)cccc2Cl)c(C#N)c1=O` [Example 67], the IC50 is below 1 µM.

For `N#Cc1c(Nc2c(Cl)cccc2Cl)sn(CCO)c1=O` [Example 68], the IC50 is below 1 µM.

On to `Cn1sc(Nc2ccc(Cl)c3c2cnn3C)c(C#N)c1=O` [Example 69], for which the IC50 is below 1 µM.

Regarding `COCCn1sc(Nc2ccc(Cl)cc2C(F)(F)F)c(C#N)c1=O` [Example 70], the IC50 is below 1 µM.

Regarding `COCCCn1sc(Nc2ccccc2C(F)(F)F)c(C#N)c1=O` [Example 71], the IC50 is below 1 µM.

Take `Cn1sc(Nc2c(Cl)ccc3c2CCN3)c(C#N)c1=O` [Example 72]: the half-inhibitory concentration (IC50) was below 1 µM.

Regarding `COCCn1sc(Nc2c(Cl)cccc2Cl)c(C#N)c1=O` [Example 73], the IC50 is below 1 µM.

For the molecule `COCC(C)n1sc(Nc2ccccc2C(F)(F)F)c(C#N)c1=O` (stereo not drawn) [Example 74], the IC50 is below 1 µM.

Turning to `Cn1sc(Nc2cccc3c2CCCO3)c(C#N)c1=O` [Example 75], the IC50 was below 1 µM.

With `N#Cc1c(Nc2ccccc2C(F)(F)F)sn(CC2CCCO2)c1=O` (stereo not drawn) [Example 76], the IC50 is below 1 µM.

Regarding `Cn1sc(Nc2c(Cl)ccc3c2CCCN3)c(C#N)c1=O` [Example 77], the IC50 is below 1 µM.

Consider `N#Cc1c(Nc2ccccc2C(F)(F)F)sn(CCC(=O)N2CCC(N3CCC3)CC2)c1=O` [Example 78], for which the half-maximal inhibitory concentration (IC50) was below 1 µM.

For the molecule `N#Cc1c(Nc2c(Cl)cccc2Cl)sn(CCC(N)=O)c1=O` [Example 79], the IC50 is below 1 µM.

As to `N#Cc1c(Nc2ccccc2C(F)(F)F)sn(Cc2ccccc2)c1=O` [Example 80], the IC50 is below 1 µM.

For `Cc1ccc2ncccc2c1Nc1sn(C)c(=O)c1C#N` [Example 81], the IC50 was below 1 µM.

For the molecule `COc1ccc2nc(C)ccc2c1Nc1sn(C)c(=O)c1C#N` [Example 82], the IC50 was below 1 µM.

As for `N#Cc1c(Nc2ccccc2C(F)(F)F)sn(CCc2ccccc2)c1=O` [Example 83], the IC50 is below 1 µM.

Turning to `COc1ccc2ncccc2c1Nc1sn(C)c(=O)c1C#N` [Example 84], the IC50 is below 1 µM.

Consider `Cn1sc(Nc2ccc(Cl)c3c2CCCO3)c(C#N)c1=O` [Example 85], for which the IC50 is below 1 µM.

As for `COCCn1sc(Nc2c(Cl)ccc3ncccc23)c(C#N)c1=O` [Example 86], the IC50 was below 1 µM.

Take `CCCn1sc(Nc2ccccc2C(F)(F)F)c(C#N)c1=O` [Example 87]: the IC50 is below 1 µM.

Consider `COc1ccc(Cn2sc(Nc3ccccc3)c(C#N)c2=O)cc1` [Example 88], for which the IC50 was below 1 µM.

Take `C[C@H](c1ccccc1)n1sc(Nc2ccccc2C(F)(F)F)c(C#N)c1=O` [Example 89]: the IC50 was below 1 µM.

Take `COCCn1sc(Nc2c(Cl)cccc2C(F)(F)F)c(C#N)c1=O` [Example 90]: the IC50 was below 1 µM.

For the molecule `Cc1ccc2c(Nc3sn(C)c(=O)c3C#N)cccc2n1` [Example 91], the IC50 was below 1 µM.

For `N#Cc1c(Nc2ccccc2C(F)(F)F)sn(Cc2n[nH]c3ccccc23)c1=O` [Example 92], the IC50 was below 1 µM.

Regarding `COc1cccc(C)c1Nc1sn(C)c(=O)c1C#N` [Example 93], the IC50 was below 1 µM.

`C[C@@H](c1ccccc1)n1sc(Nc2ccccc2C(F)(F)F)c(C#N)c1=O` [Example 94]: the half-inhibitory concentration (IC50) was below 1 µM.

As for `COCCn1sc(Nc2cccc3ncccc23)c(C#N)c1=O` [Example 95], the IC50 was below 1 µM.

Regarding `COC(C)(C)Cn1sc(Nc2c(Cl)cccc2Cl)c(C#N)c1=O` [Example 96], the IC50 is below 1 µM.

In the case of `COC(C)(C)Cn1sc(Nc2ccccc2C(F)(F)F)c(C#N)c1=O` [Example 97], the IC50 was below 1 µM.

Regarding `COCCn1sc(Nc2ccccc2C(C)(C)C)c(C#N)c1=O` [Example 98], the IC50 was below 1 µM.

`CN(C)CCn1sc(Nc2c(Cl)cccc2Cl)c(C#N)c1=O` [Example 99]: the IC50 was below 1 µM.

Take `COc1cccc(Cl)c1Nc1s[nH]c(=O)c1C#N` [Example 100]: the IC50 is below 1 µM.

In the case of `CC(C)(O)Cn1sc(Nc2c(Cl)cccc2Cl)c(C#N)c1=O` [Example 101], the IC50 is below 1 µM.

`N#Cc1c(Nc2c(F)cccc2Cl)s[nH]c1=O` [Example 102]: the IC50 was below 1 µM.

Take `COc1cccc(C(F)(F)F)c1Nc1s[nH]c(=O)c1C#N` [Example 103]: the IC50 is below 1 µM.

Consider `N#Cc1c(Nc2c(Cl)ccc3ncccc23)s[nH]c1=O` [Example 104], for which the IC50 is 1 to 5 µM.

Take `N#Cc1c(Nc2ccccc2C(F)(F)F)sn(CCC(=O)O)c1=O` [Example 105]: the IC50 is below 1 µM.

`COc1ccc2nc(C)ccc2c1Nc1s[nH]c(=O)c1C#N` [Example 106]: the IC50 was 1 to 5 µM.

Regarding `CC(C)n1sc(Nc2ccccc2C(F)(F)F)c(C#N)c1=O` [Example 107], the IC50 was below 1 µM.

Consider `N#Cc1c(Nc2cccc(C(N)=O)c2C(F)(F)F)s[nH]c1=O` [Example 108], for which the IC50 was 1 to 5 µM.
